Measurements reported in patent US4864023A, “Pyrido(3,2,1-IJ)-1,3,4-benzoxadiazine derivatives” (priority 1988, dated 1989).
≈ marks a conversion by molar mass, not a printed value. Read-outs that look alike come from different tables or passages of the source.

Columns and labels:
Experiment in all cases: in vitro antibacterial activity, standard agar dilution method
Type in all cases: cell-based
[1] = test system: Bacillus subtilis PCI 219; conditions: PCI219, aerobic, read-out: minimum inhibitory concentration (MIC)
[2] = test system: Staphylococcus aureus FDA 209P JC-1; conditions: FDA209P, read-out: minimum inhibitory concentration (MIC)
[3] = test system: Staphylococcus aureus NR 2855; conditions: NR2855; Staphylococcus aureus NR 2855; aerobic; agar dilution; read-out: minimum inhibitory concentration (MIC)
[4] = test system: Staphylococcus aureus Smith; conditions: read-out: minimum inhibitory concentration (MIC)
[5] = test system: Staphylococcus epidermidis IFO 12993; conditions: IFO12993, aerobic, read-out: minimum inhibitory concentration (MIC)
[6] = test system: Staphylococcus epidermidis NR 2942; conditions: NR2942, aerobic, read-out: minimum inhibitory concentration (MIC)
[7] = test system: Enterococcus faecalis NR 2943; conditions: NR2943, aerobic, read-out: minimum inhibitory concentration (MIC)
[8] = test system: Alcaligenes faecalis IFO 13111; conditions: IFO13111, aerobic, read-out: minimum inhibitory concentration (MIC)
[9] = test system: Citrobacter freundii IFO 12681; conditions: IFO12681, aerobic, read-out: minimum inhibitory concentration (MIC)
[10] = test system: Enterobacter aerogenes NR 2945; conditions: Klebsiella aerogenes, NR2945, aerobic, read-out: minimum inhibitory concentration (MIC)
[11] = test system: Enterobacter cloacae NR 2946; conditions: NR2946, aerobic, read-out: minimum inhibitory concentration (MIC)
[12] = test system: Escherichia coli NIHJ JC-2; conditions: NIHJJC2, aerobic, read-out: minimum inhibitory concentration (MIC)
Escherichia coli NR 2630 = conditions: NR2630; Escherichia coli NR 2630; aerobic; agar dilution; read-out: minimum inhibitory concentration (MIC)
[13] = test system: Klebsiella pneumoniae FDA PCI 602; conditions: FDAPCI602, aerobic, read-out: minimum inhibitory concentration (MIC)
[14] = test system: Bordetella bronchiseptica ATCC 4617; conditions: ATCC4617, aerobic, read-out: minimum inhibitory concentration (MIC)
[15] = test system: Proteus rettgeri ATCC 14505; conditions: Providencia rettgeri, ATCC14505, aerobic, read-out: minimum inhibitory concentration (MIC)
[16] = test system: Proteus vulgaris OX19 ATCC 6898; conditions: ATCC6898, aerobic, read-out: minimum inhibitory concentration (MIC)
[17] = test system: Pseudomonas aeruginosa A3; conditions: aerobic, read-out: minimum inhibitory concentration (MIC)
[18] = test system: Pseudomonas aeruginosa NR 2950; conditions: NR2950, aerobic, read-out: minimum inhibitory concentration (MIC)
[19] = test system: Serratia marcescens IFO 12648; conditions: IFO12648, aerobic, read-out: minimum inhibitory concentration (MIC)
[20] = test system: Salmonella typhimurium IFO 12529; conditions: Salmonella enterica, aerobic, read-out: minimum inhibitory concentration (MIC)
[21] = Staphylococcus aureus FDA 209P JC-1, aerobic, agar dilution
[22] = Staphylococcus aureus Smith, aerobic, agar dilution

Compound	MIC [1] [µg/mL]	MIC [2, 21] [µg/mL]	MIC [3] [µg/mL]	MIC [5] [µg/mL]	MIC [6] [µg/mL]	MIC [7] [µg/mL]	MIC [8] [µg/mL]	MIC [9] [µg/mL]	MIC [10] [µg/mL]	MIC [11] [µg/mL]	MIC [12] [µg/mL]	MIC (Escherichia coli NR 2630) [µg/mL]	MIC [13] [µg/mL]	MIC [14] [µg/mL]	MIC [15] [µg/mL]	MIC [16] [µg/mL]	MIC [17] [µg/mL]	MIC [18] [µg/mL]	MIC [19] [µg/mL]	MIC [20] [µg/mL]	also measured
CN1COc2c(N3CCNC(=O)C3)c(F)cc3c(=O)c(C(=O)O)cn1c23 [Example 24, 9-fluoro-3-methyl-7-oxo-10-(3-oxo-1-piperazinyl)-2,3-dihydro-7H-pyrido[3,2,1-ij]-1,3,4-benzoxadiazine-6-carboxylic acid]	0.39 (≈ 1.08 µM)	1.56 (≈ 4.31 µM)	6.25 (≈ 17.3 µM)	3.13 (≈ 8.64 µM)	3.13 (≈ 8.64 µM)	25 (≈ 69 µM)	25 (≈ 69 µM)	1.56 (≈ 4.31 µM)	0.78 (≈ 2.15 µM)	3.13 (≈ 8.64 µM)	1.56 (≈ 4.31 µM)	0.78 (≈ 2.15 µM)	6.25 (≈ 17.3 µM)	50 (≈ 138 µM)	12.5 (≈ 34.5 µM)	0.39 (≈ 1.08 µM)	3.13 (≈ 8.64 µM)	25 (≈ 69 µM)	6.25 (≈ 17.3 µM)	0.78 (≈ 2.15 µM)	MIC [4, 22]: 1.56 µg/mL (≈ 4.31 µM)
CCNC1CCN(c2c(F)cc3c(=O)c(C(=O)O)cn4c3c2OCN4C)CC1 [Example 35]	0.05 (≈ 0.128 µM)	–	1.56 (≈ 4 µM)	0.78 (≈ 2 µM)	0.78 (≈ 2 µM)	6.25 (≈ 16 µM)	25 (≈ 64 µM)	0.2 (≈ 0.512 µM)	0.1 (≈ 0.256 µM)	0.39 (≈ 0.999 µM)	0.1 (≈ 0.256 µM)	0.1 (≈ 0.256 µM)	1.56 (≈ 4 µM)	12.5 (≈ 32 µM)	3.13 (≈ 8.02 µM)	0.05 (≈ 0.128 µM)	1.56 (≈ 4 µM)	12.5 (≈ 32 µM)	1.56 (≈ 4 µM)	0.1 (≈ 0.256 µM)	MIC ([2]; Staphylococcus aureus): 0.39 µg/mL (≈ 0.999 µM); MIC ([4]; Staphylococcus aureus): 0.39 µg/mL (≈ 0.999 µM)
CN1COc2c(N3CCC(CN)CC3)c(F)cc3c(=O)c(C(=O)O)cn1c23 [Example 12]	0.1 (≈ 0.266 µM)	0.1 (≈ 0.266 µM)	0.78 (≈ 2.07 µM)	0.39 (≈ 1.04 µM)	0.39 (≈ 1.04 µM)	3.13 (≈ 8.32 µM)	50 (≈ 133 µM)	0.78 (≈ 2.07 µM)	0.2 (≈ 0.531 µM)	0.78 (≈ 2.07 µM)	0.2 (≈ 0.531 µM)	0.1 (≈ 0.266 µM)	3.13 (≈ 8.32 µM)	6.25 (≈ 16.6 µM)	12.5 (≈ 33.2 µM)	0.1 (≈ 0.266 µM)	0.78 (≈ 2.07 µM)	12.5 (≈ 33.2 µM)	3.13 (≈ 8.32 µM)	0.2 (≈ 0.531 µM)	MIC [4, 22]: 0.1 µg/mL (≈ 0.266 µM)
CC(=O)CN1CCN(c2c(F)cc3c(=O)c(C(=O)O)cn4c3c2OCN4C)CC1 [Example 40, 9-fluoro-3-methyl-7-oxo-10-[4-(2-oxo-n-propyl)-1-piperazinyl]-2,3-dihydro-7H-pyrido[3,2,1-ij]-1,3,4-benzoxadiazine-6-carboxylic acid]	0.1 (≈ 0.247 µM)	1.56 (≈ 3.86 µM)	0.78 (≈ 1.93 µM)	1.56 (≈ 3.86 µM)	0.78 (≈ 1.93 µM)	12.5 (≈ 30.9 µM)	6.25 (≈ 15.5 µM)	0.2 (≈ 0.495 µM)	0.1 (≈ 0.247 µM)	0.39 (≈ 0.964 µM)	0.39 (≈ 0.964 µM)	0.2 (≈ 0.495 µM)	1.56 (≈ 3.86 µM)	1.56 (≈ 3.86 µM)	3.13 (≈ 7.74 µM)	0.2 (≈ 0.495 µM)	1.56 (≈ 3.86 µM)	12.5 (≈ 30.9 µM)	1.56 (≈ 3.86 µM)	0.39 (≈ 0.964 µM)	MIC [4, 22]: 0.78 µg/mL (≈ 1.93 µM)
CNC1CCN(c2c(F)cc3c(=O)c(C(=O)O)cn4c3c2OCN4C)CC1 [Example 34]	0.05 (≈ 0.133 µM)	0.2 (≈ 0.531 µM)	1.56 (≈ 4.14 µM)	0.78 (≈ 2.07 µM)	0.78 (≈ 2.07 µM)	6.25 (≈ 16.6 µM)	50 (≈ 133 µM)	0.2 (≈ 0.531 µM)	0.1 (≈ 0.266 µM)	0.2 (≈ 0.531 µM)	0.2 (≈ 0.531 µM)	0.1 (≈ 0.266 µM)	0.78 (≈ 2.07 µM)	25 (≈ 66.4 µM)	3.13 (≈ 8.32 µM)	0.05 (≈ 0.133 µM)	0.78 (≈ 2.07 µM)	6.25 (≈ 16.6 µM)	0.78 (≈ 2.07 µM)	0.1 (≈ 0.266 µM)	MIC [4, 22]: 0.2 µg/mL (≈ 0.531 µM)
CN1COc2c(N3CCN(C(=O)CCC(=O)O)CC3)c(F)cc3c(=O)c(C(=O)O)cn1c23 [Example 49, 10-[4-(3-carboxypropionyl)-1-piperazinyl]-9-fluoro-3-methyl-7-oxo-2,3-dihydro-7H-pyrido[3,2,1-ij]-1,3,4-benzoxadiazine-6-carboxylic acid]	3.13 (≈ 6.98 µM)	6.25 (≈ 13.9 µM)	12.5 (≈ 27.9 µM)	12.5 (≈ 27.9 µM)	12.5 (≈ 27.9 µM)	100 (≈ 223 µM)	100 (≈ 223 µM)	0.39 (≈ 0.87 µM)	0.39 (≈ 0.87 µM)	0.78 (≈ 1.74 µM)	1.56 (≈ 3.48 µM)	0.39 (≈ 0.87 µM)	1.56 (≈ 3.48 µM)	50 (≈ 112 µM)	3.13 (≈ 6.98 µM)	0.78 (≈ 1.74 µM)	3.13 (≈ 6.98 µM)	50 (≈ 112 µM)	3.13 (≈ 6.98 µM)	0.39 (≈ 0.87 µM)	MIC [4, 22]: 6.25 µg/mL (≈ 13.9 µM)
